Experimental findings from patent US20260144883A1, “ANTI-TROP2/EGFR ANTIBODIES AND USES THEREOF” (XADCERA BIOPHARMACEUTICAL (SUZHOU) CO., LTD., priority 2022, published 2026) are described below.

Test in all cases: In vitro killing activity (CellCounting-Lite 2.0, 7 days)
Common to all, as to type: cell-based

Experiment [1] deals with A431 cells. The conditions noted are these: Homo sapiens, A-431, 168 h.
Experiment [2] relates to NCI-H292 cells. The settings on record: Homo sapiens, 168 h.
Experiment [3] has as its system HCC827 cells. The settings on record: Homo sapiens, 168 h.
The test system of experiment [4] is Panc 02.03 cells. The conditions noted are these: Homo sapiens, Panc 02.03, 168 h.

A word on the IC50: it is the concentration that gives 50% inhibition. `CC[C@@]1(O)C(=O)OCc2c1cc1n(c2=O)Cc2c-1nc1ccc(N)c3c1c2CCO3` [CPT2, (S)-4-amino-9-ethyl-9-hydroxy-1,9,12,15-tetrahydro-13H-pyrano[4,3,2-de]pyrano[3′,4′:6,7]indolizino[1,2-b]quinoline-10,13(2H)-dione]: the IC50 came to 1.38 nM in experiment [1], 0.728 nM in experiment [2], 1.69 nM in experiment [3] and 0.981 nM in experiment [4].
